In brackets after ≈: the same amount, converted by molar mass. Each block holds one molecule with its values, some of them ahead of it.
Legend:
Pseudomonas aeruginosa [1] = assay: Antibacterial activity against Pseudomonas aeruginosa ATCC 27853 assessed as effect on planktonic growth at 0.68 ug/ml after 20 hrs relative to control; assay type: functional
Pseudomonas aeruginosa [2] = assay: Antibacterial activity against Pseudomonas aeruginosa ATCC 27853 assessed as effect on planktonic growth at 5.5 ug/ml after 20 hrs relative to control; assay type: functional
[3] = system: Staphylococcus epidermidis; assay: Antibacterial activity against Staphylococcus epidermidis ATCC 35547 assessed as effect on planktonic growth at 1.37 ug/ml after 20 hrs relative to control; assay type: functional
Pseudomonas aeruginosa [4] = assay: Antibacterial activity against Pseudomonas aeruginosa ATCC 27853 assessed as effect on planktonic growth at 10.9 ug/ml after 20 hrs relative to control; assay type: functional
Staphylococcus aureus [5] = assay: Antibacterial activity against Staphylococcus aureus ATCC 25923 assessed as effect on planktonic growth at 0.34 ug/ml after 20 hrs relative to control; assay type: functional
[6] = system: Staphylococcus epidermidis; assay: Antibacterial activity against Staphylococcus epidermidis ATCC 35547 assessed as effect on planktonic growth at 0.34 ug/ml after 20 hrs relative to control; assay type: functional
[7] = system: Staphylococcus epidermidis; assay: Antibacterial activity against Staphylococcus epidermidis ATCC 35547 assessed as effect on planktonic growth at 21.9 ug/ml after 20 hrs relative to control; assay type: functional
[8] = system: Staphylococcus epidermidis; assay: Antibacterial activity against Staphylococcus epidermidis ATCC 35547 assessed as effect on planktonic growth at 87.5 ug/ml after 20 hrs relative to control; assay type: functional
Pseudomonas aeruginosa [9] = assay: Antibacterial activity against Pseudomonas aeruginosa ATCC 27853 assessed as effect on planktonic growth at 87.5 ug/ml after 20 hrs relative to control; assay type: functional
Streptococcus mutans [10] = assay: Antibacterial activity against Streptococcus mutans ATCC 25175 assessed as effect on planktonic growth at 2.73 ug/ml after 20 hrs relative to control; assay type: functional
Pseudomonas aeruginosa [11] = assay: Antibacterial activity against Pseudomonas aeruginosa ATCC 27853 assessed as effect on planktonic growth at 2.73 ug/ml after 20 hrs relative to control; assay type: functional
Streptococcus mutans [12] = assay: Antibacterial activity against Streptococcus mutans ATCC 25175 assessed as effect on planktonic growth at 1.37 ug/ml after 20 hrs relative to control; assay type: functional
Streptococcus mutans [13] = assay: Antibacterial activity against Streptococcus mutans ATCC 25175 assessed as effect on planktonic growth at 0.34 ug/ml after 20 hrs relative to control; assay type: functional
Streptococcus mutans [14] = assay: Antibacterial activity against Streptococcus mutans ATCC 25175 assessed as effect on planktonic growth at 5.5 ug/ml after 20 hrs relative to control; assay type: functional
Pseudomonas aeruginosa [15] = assay: Antibacterial activity against Pseudomonas aeruginosa ATCC 27853 assessed as effect on planktonic growth at 1.37 ug/ml after 20 hrs relative to control; assay type: functional
Staphylococcus aureus [16] = assay: Antibacterial activity against Staphylococcus aureus ATCC 25923 assessed as effect on planktonic growth at 5.5 ug/ml after 20 hrs relative to control; assay type: functional
Staphylococcus aureus [17] = assay: Antibacterial activity against Staphylococcus aureus ATCC 25923 assessed as effect on planktonic growth at 0.68 ug/ml after 20 hrs relative to control; assay type: functional
Staphylococcus aureus [18] = assay: Antibacterial activity against Staphylococcus aureus ATCC 25923 assessed as effect on planktonic growth at 1.37 ug/ml after 20 hrs relative to control; assay type: functional
Staphylococcus aureus [19] = assay: Antibacterial activity against Staphylococcus aureus ATCC 25923 assessed as effect on planktonic growth at 87.5 ug/ml after 20 hrs relative to control; assay type: functional
Staphylococcus aureus [20] = assay: Antibacterial activity against Staphylococcus aureus ATCC 25923 assessed as effect on planktonic growth at 2.73 ug/ml after 20 hrs relative to control; assay type: functional
[21] = system: Staphylococcus epidermidis; assay: Antibacterial activity against Staphylococcus epidermidis ATCC 35547 assessed as effect on planktonic growth at 0.68 ug/ml after 20 hrs relative to control; assay type: functional
Streptococcus mutans [22] = assay: Antibacterial activity against Streptococcus mutans ATCC 25175 assessed as effect on planktonic growth at 0.17 ug/ml after 20 hrs relative to control; assay type: functional
[23] = system: Staphylococcus epidermidis; assay: Antibacterial activity against Staphylococcus epidermidis ATCC 35547 assessed as effect on planktonic growth at 2.73 ug/ml after 20 hrs relative to control; assay type: functional
Streptococcus mutans [24] = assay: Antibacterial activity against Streptococcus mutans ATCC 25175 assessed as effect on planktonic growth at 0.68 ug/ml after 20 hrs relative to control; assay type: functional
Pseudomonas aeruginosa [25] = assay: Antibacterial activity against Pseudomonas aeruginosa ATCC 27853 assessed as effect on planktonic growth at 21.9 ug/ml after 20 hrs relative to control; assay type: functional
[26] = system: Staphylococcus epidermidis; assay: Antibacterial activity against Staphylococcus epidermidis ATCC 35547 assessed as effect on planktonic growth at 10.9 ug/ml after 20 hrs relative to control; assay type: functional
Pseudomonas aeruginosa [27] = assay: Antibacterial activity against Pseudomonas aeruginosa ATCC 27853 assessed as effect on planktonic growth at 43.8 ug/ml after 20 hrs relative to control; assay type: functional
Streptococcus mutans [28] = assay: Antibacterial activity against Streptococcus mutans ATCC 25175 assessed as effect on planktonic growth at 87.5 ug/ml after 20 hrs relative to control; assay type: functional
Pseudomonas aeruginosa [29] = assay: Antibacterial activity against Pseudomonas aeruginosa ATCC 27853 assessed as effect on planktonic growth at 0.17 ug/ml after 20 hrs relative to control; assay type: functional
Pseudomonas aeruginosa [30] = assay: Antibacterial activity against Pseudomonas aeruginosa ATCC 27853 assessed as inhibition of biofilm formation after 20 hrs by crystal-violet staining method; assay type: functional, organism-based
Streptococcus mutans [31] = assay: Antibacterial activity against Streptococcus mutans ATCC 25175 assessed as effect on planktonic growth at 43.8 ug/ml after 20 hrs relative to control; assay type: functional
Pseudomonas aeruginosa [32] = assay: Antibacterial activity against Pseudomonas aeruginosa ATCC 27853 assessed as effect on planktonic growth at 0.34 ug/ml after 20 hrs relative to control; assay type: functional
[33] = system: Staphylococcus epidermidis; assay: Antibacterial activity against Staphylococcus epidermidis ATCC 35547 assessed as inhibition of biofilm formation after 20 hrs by crystal-violet staining method; assay type: functional, organism-based
Staphylococcus aureus [34] = assay: Antibacterial activity against Staphylococcus aureus ATCC 25923 assessed as effect on planktonic growth at 10.9 ug/ml after 20 hrs relative to control; assay type: functional
Streptococcus mutans [35] = assay: Antibacterial activity against Streptococcus mutans ATCC 25175 assessed as effect on planktonic growth at 10.9 ug/ml after 20 hrs relative to control; assay type: functional
Streptococcus mutans [36] = assay: Antibacterial activity against Streptococcus mutans ATCC 25175 assessed as effect on planktonic growth at 21.9 ug/ml after 20 hrs relative to control; assay type: functional
[37] = system: Staphylococcus epidermidis; assay: Antibacterial activity against Staphylococcus epidermidis ATCC 35547 assessed as effect on planktonic growth at 5.5 ug/ml after 20 hrs relative to control; assay type: functional
Staphylococcus aureus [38] = assay: Antibacterial activity against Staphylococcus aureus ATCC 25923 assessed as effect on planktonic growth at 0.17 ug/ml after 20 hrs relative to control; assay type: functional
Staphylococcus aureus [39] = assay: Antibacterial activity against Staphylococcus aureus ATCC 25923 assessed as effect on planktonic growth at 43.8 ug/ml after 20 hrs relative to control; assay type: functional
Staphylococcus aureus [40] = assay: Antibacterial activity against Staphylococcus aureus ATCC 25923 assessed as effect on planktonic growth at 21.9 ug/ml after 20 hrs relative to control; assay type: functional
[41] = system: Staphylococcus epidermidis; assay: Antibacterial activity against Staphylococcus epidermidis ATCC 35547 assessed as effect on planktonic growth at 0.17 ug/ml after 20 hrs relative to control; assay type: functional
[42] = system: Staphylococcus epidermidis; assay: Antibacterial activity against Staphylococcus epidermidis ATCC 35547 assessed as effect on planktonic growth at 43.8 ug/ml after 20 hrs relative to control; assay type: functional

- IC50 (Pseudomonas aeruginosa [30]; ATCC 27853, 20 h): > 87.5 µg/mL
- IC50 ([33]; ATCC 35547, 20 h): 41 µg/mL (≈ 86 µM)
Compound: COc1cccc(/C=C2/C(c3cc(Cl)ccc3OC)=C(Br)C(=O)N2CC(C)C)c1
- Activity (Pseudomonas aeruginosa [1]): 1%
- Activity (Pseudomonas aeruginosa [2]): -9.1%
- Activity [3]: -2.6%
- Activity (Pseudomonas aeruginosa [4]): -15.5%
- Activity (Staphylococcus aureus [5]): -3%
- Activity [6]: -0.7%
- Activity [7]: 11.3%
- Activity [8]: 35.5%
- Activity (Pseudomonas aeruginosa [9]): -2.1%
- Activity (Streptococcus mutans [10]): -6.5%
- Activity (Pseudomonas aeruginosa [11]): 0.2%
- Activity (Streptococcus mutans [12]): -4.4%
- Activity (Streptococcus mutans [13]): -18.2%
- Activity (Streptococcus mutans [14]): 2.6%
- Activity (Pseudomonas aeruginosa [15]): 0.8%
- Activity (Staphylococcus aureus [16]): -3.5%
- Activity (Staphylococcus aureus [17]): -9.6%
- Activity (Staphylococcus aureus [18]): -5.7%
- Activity (Staphylococcus aureus [19]): 13%
- Activity (Staphylococcus aureus [20]): -13.7%
- Activity [21]: 5.5%
- Activity (Streptococcus mutans [22]): -19.6%
- Activity [23]: -3.8%
- Activity (Streptococcus mutans [24]): -17.3%
- Activity (Pseudomonas aeruginosa [25]): -10%
- Activity [26]: 0.9%
- Activity (Pseudomonas aeruginosa [27]): -8.9%
- Activity (Streptococcus mutans [28]): 30.8%
- Activity (Pseudomonas aeruginosa [29]): 3.2%
- inhibition (Pseudomonas aeruginosa [30]): Dose-dependent effect
- Activity (Streptococcus mutans [31]): 12.3%
- Activity (Pseudomonas aeruginosa [32]): 2.8%
- inhibition [33]: Dose-dependent effect
- Activity (Staphylococcus aureus [34]): -7.2%
- Activity (Streptococcus mutans [35]): 1.2%
- Activity (Streptococcus mutans [36]): 6.2%
- Activity [37]: -2.3%
- Activity (Staphylococcus aureus [38]): -2.6%
- Activity (Staphylococcus aureus [39]): -11.3%
- Activity (Staphylococcus aureus [40]): 7.2%
- Activity [41]: 5.8%
- Activity [42]: 24.6%

Compound: COc1ccc(C)cc1C1=C(Br)C(=O)O/C1=C\c1ccccc1Cl
- Activity (Pseudomonas aeruginosa [1]): -7.8%
- Activity (Pseudomonas aeruginosa [2]): -5.3%
- Activity [3]: 8.5%
- Activity (Pseudomonas aeruginosa [4]): -10.2%
- Activity (Staphylococcus aureus [5]): 8.3%
- Activity [6]: -0.1%
- Activity [7]: 15.8%
- Activity [8]: 70.5%
- Activity (Pseudomonas aeruginosa [9]): 11.1%
- Activity (Streptococcus mutans [10]): -4.1%
- Activity (Pseudomonas aeruginosa [11]): -4.1%
- Activity (Streptococcus mutans [12]): 1.5%
- Activity (Streptococcus mutans [13]): 6.4%
- Activity (Streptococcus mutans [14]): 0.8%
- Activity (Pseudomonas aeruginosa [15]): -7.5%
- Activity (Staphylococcus aureus [16]): 8.3%
- Activity (Staphylococcus aureus [17]): 10.9%
- Activity (Staphylococcus aureus [18]): 16.9%
- Activity (Staphylococcus aureus [19]): 37%
- Activity (Staphylococcus aureus [20]): 16.9%
- Activity [21]: 0.9%
- Activity (Streptococcus mutans [22]): 1.5%
- Activity [23]: -0.7%
- Activity (Streptococcus mutans [24]): 5.6%
- Activity (Pseudomonas aeruginosa [25]): -6.8%
- Activity [26]: 13.5%
- Activity (Pseudomonas aeruginosa [27]): -2%
- Activity (Streptococcus mutans [28]): 18.9%
- Activity (Pseudomonas aeruginosa [29]): -3.8%
- inhibition (Pseudomonas aeruginosa [30]): Dose-dependent effect
- Activity (Streptococcus mutans [31]): 7.4%
- Activity (Pseudomonas aeruginosa [32]): -8.6%
- inhibition [33]: Dose-dependent effect
- Activity (Staphylococcus aureus [34]): 10.9%
- Activity (Streptococcus mutans [35]): -13.6%
- Activity (Streptococcus mutans [36]): -3.3%
- Activity [37]: 3.7%
- Activity (Staphylococcus aureus [38]): 6%
- Activity (Staphylococcus aureus [39]): 25.3%
- Activity (Staphylococcus aureus [40]): 7.3%
- Activity [41]: -1.6%
- Activity [42]: 36.5%

Reference: ChEMBL document CHEMBL3112480, “γ-Alkylidene-γ-lactones and isobutylpyrrol-2(5H)-ones analogues to rubrolides as inhibitors of biofilm formation by gram-positive and gram-negative bacteria” (Bioorg Med Chem Lett, 2014)
